Results on eleven compounds are retold here after paper PMC6151511, “Rational Design of Nucleoside–Bile Acid Conjugates Incorporating a Triazole Moiety for Anticancer Evaluation and SAR Exploration” (Molecules : A Journal of Synthetic Chemistry and Natural …, 2017).

Where two headings read alike, the source gives them in different places. Some results are limits rather than exact numbers.

Data set [1] relates to Normal human skin fibroblast cells. The experiment in a line: MTT assay, cytotoxicity on normal fibroblasts (control). The data set is classed as cell-based. The conditions noted are these: up to 100 μM; for IC50: MTT, 72 h incubation, mean of three independent experiments ± SD, IC50 > 100 means inhibition <10% at 100 μM, read-out: IC50 FIBRO. The protocol:
(§1) All conjugated compounds prepared via click chemistry and listed in Table 1 were evaluated in vitro for their cytotoxic activity against K562 leukemia cells and the colon cancer cell line HCT116. Normal human skin fibroblast cells were chosen as a control and cisplatin served as a reference compound. The cytotoxicity was evaluated using the MTT assay (details are reported in the Materials and Methods section). In all experiments the cell growth inhibition of K562 and HCT116 was determined for each compound at concentrations of 10, 25 and 50 μM after 72 h of treatment and up to 100 μM in the case of fibroblasts.
(§2) The antiproliferative activity of the compounds was tested using the 3-(4,5-dimethylthiozol-2-yl)2,5-diphenyltetrazolium bromide solution (MTT) assay. K562 and HCT116 were seeded in triplicate in 96-well trays respectively at the density of 5 × 10^3 and 10^4 in 50 μL of complete medium. Stock solutions (50 mM) of each compound were made in DMSO and diluted in complete medium to give final concentrations of 50, 25 and 10 μM. Untreated cells were placed in every plate as a negative control. The cells were exposed to the compounds, in 100 μL total volume, for 72 h.
For orientation: Tetrazolium assays rely on reduction of a dye to a coloured formazan, in cell work by metabolically active cells.

Data set [2] deals with K562 cells. The experiment in a line: Annexin V-FITC/PI apoptosis assay by flow cytometry. The data set is classed as cell-based. The conditions noted are these: 25 and 50 μM, 24 h. On the procedure:
In this study we also tested in vitro the nucleoside-alkyne derivatives (namely ALK-A, ALK-G, ALK-dG and ALK-dU) and the N3-BA building blocks (namely 3α-N3-CDC, 3α-N3-UDC, 3α-N3-TUDCA, 23-N3-nor-CDC and 23-N3-nor-UDC). […] (Table 1). To determine whether the antiproliferative activity induced by dA-nor-CDC was related to apoptosis, as previously reported for the corresponding dA-CDC conjugate, K562 cells were treated with compound dA-nor-CDC (25 and 50 μM) for 24 h, then assayed by flow cytometry analysis with Annexin V-FITC staining.
The percentage of apoptotic cells was assessed using the Annexin V assay (Clontech Laboratories, Inc. A Takara Bio Company, Mountain View, CA, USA). Propidium iodide (PI) was used to avoid necrotic cell detection (Annexin−/PI+). The drug-induced apoptotic rate (Annexin+/PI− and Annexin V+/PI+) was compared with the apoptosis in the absence of the drugs used as control (spontaneous apoptosis). K562 cells were cultured in RPMI + 10% FBS in a 6-weels plate for 24 h in the presence of compounds dA-nor-CDC at concentration of 50 and 25 μM. […] Incubation with annexin V for 15 min on ice in dark was directly followed by flow cytometric analysis of the cells with a FACScan (Becton Dickinson, San Jose, CA, USA) at 488 nm and quantified using the Cell Quest Pro software (Becton Dickinson).

For data set [3], the system named is HCT116 colon carcinoma. The experiment in a line: MTT assay, cell growth inhibition of HCT116 colon carcinoma. The data set is classed as cell-based. The following applies: for IC50: MTT, 72 h incubation, mean of three independent experiments ± SD, IC50 > 50 means inhibition <20% at 50 μM. The protocol: as §1
(§3) Cell growth inhibition assays were carried out using the leukemia cell line K562 and colon carcinoma HCT116. Cell lines were obtained from ATCC (Manassas, VA, USA) and maintained in RPMI 1640, supplemented with 10% fetal bovine serum (FBS), penicillin (100 Units mL^−1), streptomycin (100 μg mL^−1) and glutamine (2 mM) (complete medium); the pH of the medium was 7.2 and the incubation was performed at 37 °C in a 5% CO2 atmosphere. Adherent cells were routinely used at 70% of confluence and passaged every 3 days by treatment with 0.05% Trypsin-EDTA (Lonza, Walkersville, MD, USA). K562 cells were routinely fed every 3 days.
as §2

Data set [4] has as its system K562 leukemia cells. In words: MTT assay, cell growth inhibition of K562 leukemia cells. The data set is classed as cell-based. The following applies: for IC50: MTT, 72 h incubation, mean of three independent experiments ± SD, IC50 > 50 means inhibition <20% at 50 μM, read-out: IC50 K562. The protocol: as §1, §3, §2
Data set [5] concerns HCT116 colon carcinoma. Also noted: method as in doi:10.1039/c3nj00513e. The conditions noted are these: MTT; ref [6]; cited from earlier work.
Data set [6] concerns K562 leukemia cells. Also noted: method as in doi:10.1039/c3nj00513e. The conditions noted are these: MTT; ref [6]; cited from earlier work.
The subject of data set [7] is Normal human skin fibroblast cells. Also on record: method as in doi:10.1039/c3nj00513e. The conditions noted are these: MTT; ref [6]; read-out: IC50 FIBRO; cited from earlier work.
Setting [8] is: Homo sapiens, Skin fibroblast, 72 h.

Turning to `CC(CCn1cc(CCCCC#Cc2nc3c(N)ncnc3n2[C@H]2C[C@H](O)[C@@H](CO)O2)nn1)[C@H]1CCC2C3C(CC[C@@]21C)[C@@]1(C)CC[C@@H](O)CC1C[C@H]3O` (stereo partly shown) [dA-nor-CDC], the IC50 (usually the concentration needed to halve the response being measured) in data set [1] (setting [8]) was about 100 µM; in data set [1] it was 91.5 ± 3.5 µM; in data set [3] (Homo sapiens, HCT-116, 72 h) it was at most 25 µM; in data set [3] it was 17 ± 2.5 µM; in data set [4] (Homo sapiens, K562, 72 h), at most 25 µM; in data set [4] it was 16.2 ± 2.2 µM. Further, the “induction of apoptosis (in words)” value in data set [2] is “induced apoptosis in a dose dependent manner”.
With `COC(=O)CCC(C)[C@H]1CCC2C3C(CC[C@@]21C)[C@@]1(C)CC[C@@H](n2cc(CCCCC#Cc4nc5c(N)ncnc5n4[C@H]4C[C@H](O)[C@@H](CO)O4)nn2)CC1C[C@H]3O` (stereo partly shown) [dA-CDC], the IC50 in data set [5] was over 200 µM; in data set [6], 8.5 ± 4 µM; in data set [7], over 200 µM.
For `COC(=O)CCC(C)[C@H]1CCC2C3C(CC[C@@]21C)[C@@]1(C)CC[C@@H](n2cc(CCCCC#Cc4nc5c(N)ncnc5n4[C@H]4C[C@H](O)[C@@H](CO)O4)nn2)CC1C[C@@H]3O` (stereo partly shown) [dA-UDC], the figures for the IC50 in data set [5], in data set [6] and in data set [7] were over 200 µM, over 100 µM and over 200 µM, respectively.
Turning to `C#CCCCCC#Cc1nc2c(N)ncnc2n1[C@H]1C[C@H](O)[C@@H](CO)O1` [ALK-dA, 8-(1,7-Octadynyl)-2′-deoxyadenosine], the IC50 in data set [5] is over 50 µM; in data set [6], over 50 µM; in data set [7], over 100 µM.
Take `CC(CCn1cc(CCCCC#Cc2nc3c(=O)[nH]c(N)nc3n2[C@@H]2O[C@H](CO)[C@@H](O)[C@H]2O)nn1)[C@H]1CCC2C3C(CC[C@@]21C)[C@@]1(C)CC[C@@H](O)CC1C[C@H]3O` (stereo partly shown) [G-nor-CDC]: the IC50 is over 100 µM in data set [1] (setting [8]); over 50 µM in data set [3] (Homo sapiens, HCT-116, 72 h); over 50 µM in data set [4] (Homo sapiens, K562, 72 h).
With `C#CCCCCC#Cc1nc2c(=O)[nH]c(N)nc2n1[C@H]1C[C@H](O)[C@@H](CO)O1` [ALK-dG, 8-(1,7-Octadynyl)-2′-deoxyguanosine], the IC50 was over 100 µM in data set [1] (setting [8]); over 50 µM in data set [3] (Homo sapiens, HCT-116, 72 h); over 50 µM in data set [4] (Homo sapiens, K562, 72 h).
`CC(CCn1cc(CCCCC#Cc2nc3c(=O)[nH]c(N)nc3n2[C@H]2C[C@H](O)[C@@H](CO)O2)nn1)[C@H]1CCC2C3C(CC[C@@]21C)[C@@]1(C)CC[C@@H](O)CC1C[C@H]3O` (stereo partly shown) [dG-nor-CDC]: the IC50 is over 100 µM in data set [1] (setting [8]); over 50 µM in data set [3] (Homo sapiens, HCT-116, 72 h); over 50 µM in data set [4] (Homo sapiens, K562, 72 h).
With `CC(CCC(=O)NCCS(=O)(=O)O)[C@H]1CCC2C3C(CC[C@@]21C)[C@@]1(C)CC[C@@H](N=[N+]=[N-])CC1C[C@@H]3O` (stereo partly drawn) [3α-N3-TUDCA, (3α-Azido-7β-hydroxy-5β-cholan-24-oyl)-2-aminoethanesulfonic Acid], the IC50 in data set [1] (setting [8]) was over 100 µM; in data set [3] (Homo sapiens, HCT-116, 72 h), over 50 µM; in data set [4] (Homo sapiens, K562, 72 h), over 50 µM. For the same compound, the “cytotoxicity towards fibroblast cells (in words)” value in data set [1] (72 h) is listed as “not be cytotoxic”. Further, the “cytotoxicity against HCT116 (in words)” value in data set [3] (10, 25 and 50 μM, 72 h) is given as “not be cytotoxic”. The “cytotoxicity against K562 (in words)” value in data set [4] (10, 25 and 50 μM, 72 h) is “not be cytotoxic”.
For the compound `CC(CCC(=O)NCCS(=O)(=O)O)[C@H]1CCC2C3C(CC[C@@]21C)[C@@]1(C)CC[C@@H](n2cc(CCCCC#Cc4nc5c(=O)[nH]c(N)nc5n4[C@H]4C[C@H](O)[C@@H](CO)O4)nn2)CC1C[C@@H]3O` (stereo partly shown) [dG-TUDCA], the IC50 in data set [1] (setting [8]) was over 100 µM; in data set [3] (Homo sapiens, HCT-116, 72 h), over 50 µM; in data set [4] (Homo sapiens, K562, 72 h), over 50 µM.
As for `COC(=O)CCC(C)[C@H]1CCC2C3C(CC[C@@]21C)[C@@]1(C)CC[C@@H](n2cc(CCCCC#Cc4cn([C@H]5C[C@H](O)[C@@H](CO)O5)c(=O)[nH]c4=O)nn2)CC1C[C@H]3O` (stereo partly shown) [dU-CDC], the IC50 is over 100 µM in data set [1] (setting [8]); over 50 µM in data set [3] (Homo sapiens, HCT-116, 72 h); over 50 µM in data set [4] (Homo sapiens, K562, 72 h).
In the case of `CC(CCN=[N+]=[N-])[C@H]1CCC2C3C(CC[C@@]21C)[C@@]1(C)CC[C@@H](O)CC1C[C@@H]3O` (stereo partly drawn) [23-N3-nor-UDC, 3α,7β-Dihydroxy-5β-23-azido-24-norcholane], the IC50 was found to be 81 ± 2 µM in data set [1] (setting [8]); 22 ± 1.4 µM in data set [3] (Homo sapiens, HCT-116, 72 h); 15 ± 1 µM in data set [4] (Homo sapiens, K562, 72 h).
